Earlier results, collected in article PMC9516332 (Frontiers in Oncology, 2022).
Where two headings read alike, the source gives them in different places.

Experiments:
Details in all cases: cited from earlier work
[1] = biological target: panel of 255 wild-type kinases (Homo sapiens, UniProt Q15208)
[2] = biological target: T1, panel of 255 wild-type kinases (Homo sapiens, UniProt P21709)
T1 sequence (P21709 26-976): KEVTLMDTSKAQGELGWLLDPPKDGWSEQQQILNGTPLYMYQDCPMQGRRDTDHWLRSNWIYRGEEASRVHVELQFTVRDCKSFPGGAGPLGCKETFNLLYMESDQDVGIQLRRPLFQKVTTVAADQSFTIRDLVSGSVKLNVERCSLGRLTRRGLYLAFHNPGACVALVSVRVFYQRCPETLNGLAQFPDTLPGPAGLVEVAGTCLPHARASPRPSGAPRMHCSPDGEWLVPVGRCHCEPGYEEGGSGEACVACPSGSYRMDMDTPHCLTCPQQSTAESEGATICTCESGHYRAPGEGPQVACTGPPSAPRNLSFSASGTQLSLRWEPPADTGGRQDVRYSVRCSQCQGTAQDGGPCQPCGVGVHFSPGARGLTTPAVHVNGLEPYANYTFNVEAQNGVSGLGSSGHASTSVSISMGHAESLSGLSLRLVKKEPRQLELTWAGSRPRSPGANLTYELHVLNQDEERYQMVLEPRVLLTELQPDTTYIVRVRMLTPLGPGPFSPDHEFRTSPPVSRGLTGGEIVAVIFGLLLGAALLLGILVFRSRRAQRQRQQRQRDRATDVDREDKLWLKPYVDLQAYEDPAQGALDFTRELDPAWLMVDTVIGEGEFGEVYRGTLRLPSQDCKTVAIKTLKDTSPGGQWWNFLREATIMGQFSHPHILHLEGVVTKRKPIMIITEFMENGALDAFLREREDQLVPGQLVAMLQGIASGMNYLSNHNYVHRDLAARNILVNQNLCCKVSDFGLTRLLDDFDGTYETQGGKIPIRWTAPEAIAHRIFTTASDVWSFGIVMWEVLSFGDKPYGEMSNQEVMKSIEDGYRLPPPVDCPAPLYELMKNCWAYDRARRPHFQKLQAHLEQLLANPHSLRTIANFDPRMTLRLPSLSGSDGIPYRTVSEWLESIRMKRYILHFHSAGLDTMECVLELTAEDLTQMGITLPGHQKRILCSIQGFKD

[3] = biological target: T2, panel of 255 wild-type kinases (Homo sapiens, UniProt Q05513)
T2 sequence (Q05513 1-592): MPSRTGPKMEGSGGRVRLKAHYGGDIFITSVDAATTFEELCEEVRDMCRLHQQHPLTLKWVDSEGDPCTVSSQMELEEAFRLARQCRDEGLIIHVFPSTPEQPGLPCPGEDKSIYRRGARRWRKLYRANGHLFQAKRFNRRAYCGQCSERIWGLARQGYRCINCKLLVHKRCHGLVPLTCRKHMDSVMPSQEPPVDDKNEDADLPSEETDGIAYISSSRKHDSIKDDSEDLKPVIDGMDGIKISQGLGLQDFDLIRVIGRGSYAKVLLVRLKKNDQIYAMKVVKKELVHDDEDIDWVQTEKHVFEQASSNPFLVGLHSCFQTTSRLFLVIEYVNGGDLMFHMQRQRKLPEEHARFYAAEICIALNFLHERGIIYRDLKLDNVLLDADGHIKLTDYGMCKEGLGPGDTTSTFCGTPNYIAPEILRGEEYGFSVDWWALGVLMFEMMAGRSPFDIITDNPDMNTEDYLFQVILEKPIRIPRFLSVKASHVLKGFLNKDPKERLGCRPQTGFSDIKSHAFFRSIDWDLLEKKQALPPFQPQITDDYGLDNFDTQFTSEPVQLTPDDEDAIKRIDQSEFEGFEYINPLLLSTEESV

[4] = biological target: T3, panel of 255 wild-type kinases (Homo sapiens, UniProt Q8TF76)
T3 sequence (Q8TF76 1-798): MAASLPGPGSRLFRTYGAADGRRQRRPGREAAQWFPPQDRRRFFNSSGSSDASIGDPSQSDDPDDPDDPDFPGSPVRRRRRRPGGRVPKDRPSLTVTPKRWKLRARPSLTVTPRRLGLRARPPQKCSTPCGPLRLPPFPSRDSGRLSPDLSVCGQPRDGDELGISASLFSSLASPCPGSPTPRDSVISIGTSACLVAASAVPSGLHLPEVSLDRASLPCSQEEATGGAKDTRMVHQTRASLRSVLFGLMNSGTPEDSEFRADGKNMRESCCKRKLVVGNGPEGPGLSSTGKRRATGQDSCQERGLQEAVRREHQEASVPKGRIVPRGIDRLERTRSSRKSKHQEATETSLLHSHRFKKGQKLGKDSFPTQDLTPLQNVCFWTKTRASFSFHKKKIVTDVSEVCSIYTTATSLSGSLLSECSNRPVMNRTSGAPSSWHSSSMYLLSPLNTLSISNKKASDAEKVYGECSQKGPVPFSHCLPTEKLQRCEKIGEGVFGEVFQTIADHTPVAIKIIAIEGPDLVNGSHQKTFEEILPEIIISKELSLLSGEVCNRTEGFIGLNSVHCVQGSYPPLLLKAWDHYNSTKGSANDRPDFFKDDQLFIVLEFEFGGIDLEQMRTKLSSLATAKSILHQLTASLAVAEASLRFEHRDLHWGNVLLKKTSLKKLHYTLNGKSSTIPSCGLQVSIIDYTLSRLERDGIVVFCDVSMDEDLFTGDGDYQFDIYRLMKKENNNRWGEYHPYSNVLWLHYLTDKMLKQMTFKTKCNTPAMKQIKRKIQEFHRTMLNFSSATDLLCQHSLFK

[5] = biological target: panel of 255 wild-type kinases (Homo sapiens, UniProt P09769)
[6] = biological target: panel of 255 wild-type kinases (Homo sapiens, UniProt Q16620)
[7] = NDR1, 1 µmol/L single concentration, ref DOI: 10.1158/1535-7163.MCT-18-0877
[8] = kinase EPHA1, 1 µmol/L single concentration, ref DOI: 10.1158/1535-7163.MCT-18-0877
[9] = kinase PKCζ, 1 µmol/L single concentration, ref DOI: 10.1158/1535-7163.MCT-18-0877
[10] = kinase Haspin, 1 µmol/L single concentration, ref DOI: 10.1158/1535-7163.MCT-18-0877
[11] = kinase FGR, 1 µmol/L single concentration, ref DOI: 10.1158/1535-7163.MCT-18-0877
[12] = kinase TRKB, 1 µmol/L single concentration, ref DOI: 10.1158/1535-7163.MCT-18-0877
[13] = NDR1, 1 µmol/L single concentration, ref DOI: 10.1371/journal.pone.0092146
[14] = kinase EPHA1, 1 µmol/L single concentration, ref DOI: 10.1371/journal.pone.0092146
[15] = kinase PKCζ, 1 µmol/L single concentration, ref DOI: 10.1371/journal.pone.0092146
[16] = kinase Haspin, 1 µmol/L single concentration, ref DOI: 10.1371/journal.pone.0092146
[17] = kinase FGR, 1 µmol/L single concentration, ref DOI: 10.1371/journal.pone.0092146
[18] = kinase TRKB, 1 µmol/L single concentration, ref DOI: 10.1371/journal.pone.0092146

## C=CC(=O)N1CCC[C@@H](n2nc(-c3ccc(Oc4ccccc4)cc3)c3c(N)ncnc32)C1 [ibrutinib]
[1]; [7]
  %-inhibition, NDR1: 2.65%
[2]; [8]
  %-inhibition at 1 µmol/L, EPHA1: 50%
[3]; [9]
  %-inhibition at 1 µmol/L, PKCζ: 10%
[4]; [10]
  %-inhibition at 1 µmol/L, Haspin: 2.53%
[5]; [11]
  %-inhibition at 1 µmol/L, FGR: 99%
[6]; [12]
  %-inhibition at 1 µmol/L, TRKB: 26%

## CC(=O)Nc1cccc(-n2c(=O)n(C3CC3)c(=O)c3c(Nc4ccc(I)cc4F)n(C)c(=O)c(C)c32)c1 [trametinib]
[1]; [13]
  %-inhibition, NDR1: -1.68%
[2]; [14]
  %-inhibition at 1 µmol/L, EPHA1: -1.61%
[3]; [15]
  %-inhibition at 1 µmol/L, PKCζ: 4.31%
[4]; [16]
  %-inhibition at 1 µmol/L, Haspin: 5%
[5]; [17]
  %-inhibition at 1 µmol/L, FGR: -9%
[6]; [18]
  %-inhibition at 1 µmol/L, TRKB: -3.4%

## Cc1cc(Nc2ncc(Cl)c(Nc3ccccc3S(=O)(=O)C(C)C)n2)c(OC(C)C)cc1C1CCNCC1 [ceritinib]
[1]; [7]
  %-inhibition, NDR1: 15%
[2]; [8]
  %-inhibition at 1 µmol/L, EPHA1: 45%
[3]; [9]
  %-inhibition at 1 µmol/L, PKCζ: 14%
[4]; [10]
  %-inhibition at 1 µmol/L, Haspin: 7%
[5]; [11]
  %-inhibition at 1 µmol/L, FGR: 5%
[6]; [12]
  %-inhibition at 1 µmol/L, TRKB: 20%

## C[C@@H](Oc1cc(-c2cnn(C3CCNCC3)c2)cnc1N)c1c(Cl)ccc(F)c1Cl [crizotinib]
[1]; [13]
  %-inhibition, NDR1: -1.48%
[2]; [14]
  %-inhibition at 1 µmol/L, EPHA1: 97%
[3]; [15]
  %-inhibition at 1 µmol/L, PKCζ: 9%
[4]; [16]
  %-inhibition at 1 µmol/L, Haspin: 7%
[5]; [17]
  %-inhibition at 1 µmol/L, FGR: 70%
[6]; [18]
  %-inhibition at 1 µmol/L, TRKB: 102%

## C=CC(=O)Nc1cc(Nc2nccc(-c3cn(C)c4ccccc34)n2)c(OC)cc1N(C)CCN(C)C [osimertinib]
[1]; [7]
  %-inhibition, NDR1: 13%
[2]; [8]
  %-inhibition at 1 µmol/L, EPHA1: 13%
[3]; [9]
  %-inhibition at 1 µmol/L, PKCζ: 9.52%
[4]; [10]
  %-inhibition at 1 µmol/L, Haspin: 14%
[5]; [11]
  %-inhibition at 1 µmol/L, FGR: 5.61%
[6]; [12]
  %-inhibition at 1 µmol/L, TRKB: -0.7%

## CCCS(=O)(=O)Nc1ccc(F)c(C(=O)c2c[nH]c3ncc(-c4ccc(Cl)cc4)cc23)c1F [vemurafenib]
[1]; [13]
  %-inhibition, NDR1: -3.81%
[2]; [14]
  %-inhibition at 1 µmol/L, EPHA1: -9%
[3]; [15]
  %-inhibition at 1 µmol/L, PKCζ: 13%
[4]; [16]
  %-inhibition at 1 µmol/L, Haspin: -3%
[5]; [17]
  %-inhibition at 1 µmol/L, FGR: 93%
[6]; [18]
  %-inhibition at 1 µmol/L, TRKB: 11%

## O=C(c1ccc(F)c(F)c1Nc1ccc(I)cc1F)N1CC(O)([C@@H]2CCCCN2)C1 [cobimetinib]
[1]; [7]
  %-inhibition, NDR1: 2.53%
[2]; [8]
  %-inhibition at 1 µmol/L, EPHA1: 0.613%
[3]; [9]
  %-inhibition at 1 µmol/L, PKCζ: 9%
[4]; [10]
  %-inhibition at 1 µmol/L, Haspin: 8%
[5]; [11]
  %-inhibition at 1 µmol/L, FGR: -1.29%
[6]; [12]
  %-inhibition at 1 µmol/L, TRKB: -1.39%

## CC(C)(C)c1nc(-c2cccc(NS(=O)(=O)c3c(F)cccc3F)c2F)c(-c2ccnc(N)n2)s1 [dabrafenib]
[1]; [13]
  %-inhibition, NDR1: -0.891%
[2]; [14]
  %-inhibition at 1 µmol/L, EPHA1: 44%
[3]; [15]
  %-inhibition at 1 µmol/L, PKCζ: 5%
[4]; [16]
  %-inhibition at 1 µmol/L, Haspin: 9%
[5]; [17]
  %-inhibition at 1 µmol/L, FGR: 82%
[6]; [18]
  %-inhibition at 1 µmol/L, TRKB: 86%

## CO[C@@H]1[C@H](N(C)C(=O)c2ccccc2)C[C@H]2O[C@]1(C)n1c3ccccc3c3c4c(c5c6ccccc6n2c5c31)C(=O)NC4 [midostaurin]
[1]; [7]
  %-inhibition, NDR1: 31%
[2]; [8]
  %-inhibition at 1 µmol/L, EPHA1: 9%
[3]; [9]
  %-inhibition at 1 µmol/L, PKCζ: -3.41%
[4]; [10]
  %-inhibition at 1 µmol/L, Haspin: 31%
[5]; [11]
  %-inhibition at 1 µmol/L, FGR: 93%
[6]; [12]
  %-inhibition at 1 µmol/L, TRKB: 99%

## CC#CC(=O)N1CCC[C@H]1c1nc(-c2ccc(C(=O)Nc3ccccn3)cc2)c2c(N)nccn12 [acalabrutinib]
[1]; [7]
  %-inhibition, NDR1: -6.32%
[2]; [8]
  %-inhibition at 1 µmol/L, EPHA1: -0.591%
[3]; [9]
  %-inhibition at 1 µmol/L, PKCζ: -5.44%
[4]; [10]
  %-inhibition at 1 µmol/L, Haspin: 5.31%
[5]; [11]
  %-inhibition at 1 µmol/L, FGR: 3%
[6]; [12]
  %-inhibition at 1 µmol/L, TRKB: 14%

## CCc1cc2c(cc1N1CCC(N3CCOCC3)CC1)C(C)(C)c1[nH]c3cc(C#N)ccc3c1C2=O [alectinib]
[1]; [7]
  %-inhibition, NDR1: 1.29%
[2]; [8]
  %-inhibition at 1 µmol/L, EPHA1: 5.62%
[3]; [9]
  %-inhibition at 1 µmol/L, PKCζ: 10%
[4]; [10]
  %-inhibition at 1 µmol/L, Haspin: 8%
[5]; [11]
  %-inhibition at 1 µmol/L, FGR: 40%
[6]; [12]
  %-inhibition at 1 µmol/L, TRKB: 38%

## COc1cc(N2CCC(N3CCN(C)CC3)CC2)ccc1Nc1ncc(Cl)c(Nc2ccccc2P(C)(C)=O)n1 [brigatinib]
[1]
  %-inhibition, NDR1: 63%
[2]
  %-inhibition at 1 µmol/L, EPHA1: 61%
[3]
  %-inhibition at 1 µmol/L, PKCζ: 5%
[4]
  %-inhibition at 1 µmol/L, Haspin: 9%
[5]
  %-inhibition at 1 µmol/L, FGR: 52%
[6]
  %-inhibition at 1 µmol/L, TRKB: 27%
